Results reported in PMC12396409, “Screening and hit evaluation of a microbial metabolite library against the pathogenic Plasmodium falciparum and Toxoplasma gondii parasites” (International Journal for Parasitology: Drugs and Drug …, 2025).
Read-outs that look alike come from different tables or passages of the source.

How the values were obtained:
[1] = system: T. gondii RH strain (RH-Tub-eYFP) tachyzoites; assay: microbe, parasite or virus in culture; assay type: cell-based, Toxoplasma gondii; details: 72 h; for percent parasite growth at 2 µg/mL: Toxoplasma gondii
[2] = system: P. falciparum 3D7 parasites; assay: P. falciparum growth inhibition assay, 2-cycle (120 h treatment), delayed-death screen and dose-response; assay type: cell-based, Plasmodium falciparum; details: for activity at 2 µg/mL: Plasmodium falciparum
[3] = system: P. falciparum 3D7 parasites; assay: P. falciparum growth inhibition assay, 1-cycle (72 h treatment), SYBR DNA staining (library screen at 2 μg/mL and dose-response); assay type: cell-based, Plasmodium falciparum; details: for activity at 2 µg/mL: Plasmodium falciparum
[4] = T. gondii, screen at 2 μg/mL, replicate 1, read-out: Tg_72h_%Growth_Rep1
[5] = T. gondii, screen at 2 μg/mL, replicate 2, read-out: Tg_72h_%Growth_Rep2
[6] = T. gondii, screen at 2 μg/mL, replicate 1
[7] = T. gondii, screen at 2 μg/mL, replicate 2
[8] = P. falciparum, 120 h, screen at 2 μg/mL, replicate 1
[9] = P. falciparum, 120 h, screen at 2 μg/mL, replicate 2
[10] = P. falciparum, 72 h, screen at 2 μg/mL, replicate 1
[11] = P. falciparum, 72 h, screen at 2 μg/mL, replicate 2

CNC[C@@H]1CC[C@@H](N)[C@@H](O[C@H]2[C@H](O)[C@@H](O[C@H]3OC[C@](C)(O)[C@H](NC)[C@H]3O)[C@H](N)C[C@@H]2N)O1 [Gentamicin C2b]
Tg_72h_%Growth_Rep1 ([1]; library screen at 2 μg/mL, % growth, replicate 1): 152.97%
Tg_72h_%Growth_Rep2 ([1]; library screen at 2 μg/mL, % growth, replicate 2): 86.04%
Pf_120h_%Growth_Rep1 ([2]; library screen at 2 μg/mL, 120 h, % growth, replicate 1): 7.99%
Pf_120h_%Growth_Rep2 ([2]; library screen at 2 μg/mL, 120 h, % growth, replicate 2): 7.07%
Pf_72h_%Growth_Rep1 ([3]; library screen at 2 μg/mL, 72 h, % growth, replicate 1): 6.39%
Pf_72h_%Growth_Rep2 ([3]; library screen at 2 μg/mL, 72 h, % growth, replicate 2): 7.30%

C[C@H]1C(=O)O[C@@H]2CCN3CC=C(COC(=O)[C@](C)(O)[C@]1(C)O)[C@H]23 [BIA-M1801]
Tg_72h_%Growth_Rep1 ([1]; T. gondii, parasite screen at 2 μg/mL, % growth, replicate 1): 108.79%
Tg_72h_%Growth_Rep2 ([1]; T. gondii, parasite screen at 2 μg/mL, % growth, replicate 2): 79.49%
Pf_120h_%Growth_Rep1 ([2]; P. falciparum 3D7, 120 h, parasite screen at 2 μg/mL, % growth, replicate 1): 81.80%
Pf_120h_%Growth_Rep2 ([2]; P. falciparum 3D7, 120 h, parasite screen at 2 μg/mL, % growth, replicate 2): 104.58%
Pf_72h_%Growth_Rep1 ([3]; P. falciparum 3D7, 72 h, parasite screen at 2 μg/mL, % growth, replicate 1): 85.52%
Pf_72h_%Growth_Rep2 ([3]; P. falciparum 3D7, 72 h, parasite screen at 2 μg/mL, % growth, replicate 2): 78.69%

C=C1[C@@H](C)[C@H]2[C@H](Cc3ccccc3)NC(=O)[C@]23OC(=O)/C=C/[C@H](O)CCC[C@@H](C)C/C=C/[C@H]3[C@@H]1O [Cytochalasin B]
percent parasite growth at 2 µg/mL [1, 4]: 31.3%
percent parasite growth at 2 µg/mL [1, 5]: 60.5%
activity at 2 µg/mL ([2]; 3D7, 120 h, P. falciparum, 120 h, screen at 2 μg/mL, replicate 1, read-out: Pf_120h_%Growth_Rep1): -1.09%
activity at 2 µg/mL ([2]; 3D7, 120 h, P. falciparum, 120 h, screen at 2 μg/mL, replicate 2, read-out: Pf_120h_%Growth_Rep2): 8.72%
activity at 2 µg/mL ([3]; 3D7, 72 h, P. falciparum, 72 h, screen at 2 μg/mL, replicate 1, read-out: Pf_72h_%Growth_Rep1): 8.23%
activity at 2 µg/mL ([3]; 3D7, 72 h, P. falciparum, 72 h, screen at 2 μg/mL, replicate 2, read-out: Pf_72h_%Growth_Rep2): 10.3%

CC(/C=C/[C@H](O)[C@@H](C)/C=C/C(=O)O)=C\C[C@H]1O[C@]2(CC[C@@H]1C)CC[C@@](CCC(C)C)(OC(=O)CCC(=O)O)[C@H](/C=C/C(C)=C/C(=O)O)O2 [Reveromycin C]
Tg_72h_%Growth_Rep1 ([1]; T. gondii, parasite screen 2 μg/mL, % growth, replicate 1): 140.65%
Tg_72h_%Growth_Rep2 ([1]; T. gondii, parasite screen 2 μg/mL, % growth, replicate 2): 73.99%
Pf_120h_%Growth_Rep1 ([2]; P. falciparum, 120 h, parasite screen 2 μg/mL, % growth, replicate 1): 71.01%
Pf_120h_%Growth_Rep2 ([2]; P. falciparum, 120 h, parasite screen 2 μg/mL, % growth, replicate 2): 60.10%
Pf_72h_%Growth_Rep1 ([3]; P. falciparum, 72 h, parasite screen 2 μg/mL, % growth, replicate 1): 86.43%
Pf_72h_%Growth_Rep2 ([3]; P. falciparum, 72 h, parasite screen 2 μg/mL, % growth, replicate 2): 70.33%

COC(=O)C1=C2Nc3ccccc3[C@@]23CCN2C[C@]4(C[C@@H]5C[C@]67CCC[C@H]6CCN6CC[C@@]8(c9cccc(OC)c9N(C4)[C@@]58O)[C@@H]67)[C@@H]4OCC[C@]4(C1)[C@H]23 [Vobtusine]
percent parasite growth at 2 µg/mL [1, 4]: 86.1%
percent parasite growth at 2 µg/mL [1, 5]: 105%
activity at 2 µg/mL ([2]; 3D7, P. falciparum, 120 h, screen at 2 μg/mL, replicate 1, read-out: Pf_120h_%Growth_Rep1): 166%
activity at 2 µg/mL ([2]; 3D7, P. falciparum, 120 h, screen at 2 μg/mL, replicate 2, read-out: Pf_120h_%Growth_Rep2): 96.3%
activity at 2 µg/mL ([3]; 3D7, P. falciparum, 72 h, screen at 2 μg/mL, replicate 1, read-out: Pf_72h_%Growth_Rep1): 81.5%
activity at 2 µg/mL ([3]; 3D7, P. falciparum, 72 h, screen at 2 μg/mL, replicate 2, read-out: Pf_72h_%Growth_Rep2): 87%

CC(=O)C1=C(O)C=C2Oc3c(C(N)=O)c(O)cc(O)c3[C@]2(C)C1=O [Cercosporamide]
Tg_72h_%Growth_Rep1 [1, 6]: 84.28%
Tg_72h_%Growth_Rep2 [1, 7]: 89.90%
Pf_120h_%Growth_Rep1 [2, 8]: 127.36%
Pf_120h_%Growth_Rep2 [2, 9]: 89.41%
Pf_72h_%Growth_Rep1 [3, 10]: 93.73%
Pf_72h_%Growth_Rep2 [3, 11]: 83.00%

CC(=O)N[C@H]1[C@H](O[C@@H]2c3ccc(c(Cl)c3)Oc3cc4cc(c3O[C@@H]3O[C@H](CO)[C@@H](O)[C@H](O)[C@H]3NC(=O)CCCCCCCC(C)C)Oc3ccc(cc3Cl)C[C@H]3NC(=O)[C@H](N)c5ccc(O)c(c5)Oc5cc(O)cc(c5)[C@H](NC3=O)C(=O)N[C@H]4C(=O)N[C@H]3C(=O)N[C@@H]2C(=O)N[C@H](C(=O)O)c2cc(O)cc(O[C@H]4O[C@H](CO)[C@@H](O)[C@H](O)[C@@H]4O)c2-c2cc3ccc2O)O[C@H](CO)[C@@H](O)[C@@H]1O [Teicoplanin A2-5]
Tg_72h_%Growth_Rep1 [1, 6]: 105.42%
Tg_72h_%Growth_Rep2 [1, 7]: 91.45%
Pf_120h_%Growth_Rep1 [2, 8]: 86.61%
Pf_120h_%Growth_Rep2 [2, 9]: 122.81%
Pf_72h_%Growth_Rep1 [3, 10]: 86.27%
Pf_72h_%Growth_Rep2 [3, 11]: 115.48%

CN1C(=O)c2ccccc2NC(=O)[C@@H]1Cc1ccccc1 [Cyclopeptine]
Tg_72h_%Growth_Rep1 [1, 6]: 139.33%
Tg_72h_%Growth_Rep2 [1, 7]: 93.22%
Pf_120h_%Growth_Rep1 [2, 8]: 15.88%
Pf_120h_%Growth_Rep2 [2, 9]: 61.17%
Pf_72h_%Growth_Rep1 [3, 10]: 53.40%
Pf_72h_%Growth_Rep2 [3, 11]: 63.93%

COC(=O)[C@]12Oc3cc(C)c(-c4c(C)cc5c(c4O)C(=O)C4=C(O)CC[C@H](O)[C@@]4(C(=O)OC)O5)c(O)c3C(=O)C1=C(O)CC[C@@H]2O [Rugulotrosin A]
percent parasite growth at 2 µg/mL ([1]; T. gondii, parasite screen 2 μg/mL, % growth, replicate 1, read-out: Tg_72h_%Growth_Rep1): 118%
percent parasite growth at 2 µg/mL ([1]; T. gondii, parasite screen 2 μg/mL, % growth, replicate 2, read-out: Tg_72h_%Growth_Rep2): 86.1%
activity at 2 µg/mL ([2]; 3D7, 120 h, P. falciparum, 120 h, parasite screen 2 μg/mL, % growth, replicate 1, read-out: Pf_120h_%Growth_Rep1): 69.8%
activity at 2 µg/mL ([2]; 3D7, 120 h, P. falciparum, 120 h, parasite screen 2 μg/mL, % growth, replicate 2, read-out: Pf_120h_%Growth_Rep2): 107%
activity at 2 µg/mL ([3]; 3D7, 72 h, P. falciparum, 72 h, parasite screen 2 μg/mL, % growth, replicate 1, read-out: Pf_72h_%Growth_Rep1): 69.8%
activity at 2 µg/mL ([3]; 3D7, 72 h, P. falciparum, 72 h, parasite screen 2 μg/mL, % growth, replicate 2, read-out: Pf_72h_%Growth_Rep2): 106%
